Experiments:
Format in all cases: in vivo
[1] = tested on: Septoria tritici (leaf blotch); assay: Test 1 greenhouse foliar spray screen, leaf blotch on wheat; settings: disease control rating, foliar spray on wheat, 400 ppm (+++ at 100 ppm)
[2] = tested on: Puccinia recondita tritici (leaf rust); assay: Test 1 greenhouse foliar spray screen, leaf rust on wheat; settings: disease control rating, foliar spray on wheat, 400 ppm (+++ at 100 ppm)
[3] = tested on: Pyricularia oryzae (rice blast); assay: whole plant or invertebrate; settings: disease control rating, foliar spray on rice, 400 ppm (+++ at 100 ppm)
[4] = tested on: melon aphids (Aphis gossypii Glover); assay: Mite/insect screen, MA; settings: percent mortality, SAW; for mortality at 200 ppm / mortality at 400 ppm: Aphis gossypii, read-out: MA RESULTS %; for mortality at 200 ppm: SM & MA RATE 200 PPM
Procedure, shortened: (§1)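 Formulation: acetone/alcohol 50:50 + sulfonate/nonionic emulsifiers, water-diluted to indicated concs. Spray both leaf surfaces to runoff, 10 psi; dry 1 h. Armyworm: 2 excised uninfested leaves in Petri dish. Score % mortality after standard exposure.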

[5] = tested on: Pseudoperonospora cubensis (downy mildew); assay: Test 1 greenhouse foliar spray screen, downy mildew on squash; settings: disease control rating, foliar spray on squash, 400 ppm (+++ at 100 ppm)
[6] = tested on: Erysiphe graminis tritici (powdery mildew); assay: Test 1 greenhouse foliar spray screen, powdery mildew on wheat; settings: disease control rating, foliar spray on wheat, 400 ppm (+++ at 100 ppm)
[7] = tested on: Venturia inaequalis (apple scab); assay: Test 1 greenhouse foliar spray screen, apple scab on apple seedling; settings: disease control rating, foliar spray on apple seedling, 400 ppm (+++ at 100 ppm)
[8] = tested on: southern armyworm (Spodopetra eridania Cramer); assay: Mite/insect screen, SAW; settings: percent mortality, SAW; for mortality at 200 ppm / mortality at 400 ppm: Spodoptera eridania, read-out: SAW RESULTS %; for mortality at 200 ppm: SM & MA RATE 200 PPM
Procedure, shortened: as §1

[9] = tested on: Twospotted spider mites (Tetranychus urticae Koch); assay: Mite/insect screen, SM; settings: percent mortality, SAW; for mortality at 200 ppm / mortality at 400 ppm: Tetranychus urticae, read-out: SM RESULTS %; for mortality at 200 ppm: SM & MA RATE 200 PPM
Procedure, shortened: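 Compounds dissolved in 50:50 acetone/alcohol containing sulfonate/nonionic emulsifier blends, then diluted with water to the indicated concentrations. Leaves sprayed on both surfaces to runoff at 10 psi and dried one hour. Percent mortality scored after standard exposure periods.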

[10] = tested on: Botrytis cinerea (gray mold); assay: Test 1 greenhouse foliar spray screen, gray mold on grape berries; settings: disease control rating, spray on grape berries, 400 ppm (+++ at 100 ppm)
corn rootworm = assay: Mite/insect screen, CRW; settings: percent mortality; for mortality at 12 ppm: CRW RATE 12.00 PPM; for mortality at 12 ppm / mortality at 24 ppm: read-out: CRW RESULTS %
Procedure, shortened: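 Percent mortality is evaluated once the standard exposure period ends. Test material is applied as a water dilution of an acetone/alcohol (50:50) stock carrying two sulfonate/nonionic emulsifiers (23 and 13 g per liter).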

[11] = tested on: Cercospora beticola (leaf spot); assay: Test 1 greenhouse foliar spray screen, leaf spot on sugar beet; settings: disease control rating, foliar spray on sugar beet, 400 ppm (+++ at 100 ppm)

Compound | LEAF BLOT [1] | LEAF RUST [2] | RICE BLAST [3] | mortality at 200 ppm [4] [%] | mortality at 400 ppm ([4]; SM & MA RATE 400 PPM) [%] | DOWN MDEW [5] | POWD MDEW [6] | APPL SCAB [7] | mortality at 200 ppm [8] [%] | mortality at 400 ppm ([8]; SM & MA RATE 400 PPM) [%] | mortality at 200 ppm [9] [%] | mortality at 400 ppm ([9]; SM & MA RATE 400 PPM) [%] | GRAY MOLD [10] | mortality at 12 ppm (corn rootworm) [%] | mortality at 24 ppm (corn rootworm; CRW RATE 24.00 PPM) [%] | LEAF SPOT [11] | MA RESULTS % ([4]; SM & MA RATE 400 PPM) [%] | SAW RESULTS % ([8]; SM & MA RATE 400 PPM) [%] | SM RESULTS % ([9]; SM & MA RATE 400 PPM) [%] | CRW RESULTS % (corn rootworm; CRW RATE 24.00 PPM) [%]
COc1ccc2nccc(NCCc3ccc(Cl)cc3)c2c1 [Example 16, N-[2-(4-chlorophenyl)ethyl]-6-methoxy-4-quinolinamine] | - (0-19% control at 400 ppm) | + (20-89% control at 400 ppm) | + (20-89% control at 400 ppm) | 0 | 0 | +++ (90-100% control at 100 ppm) | - (0-19% control at 400 ppm) | - (0-19% control at 400 ppm) | 0 | 0 | 0 | 0 | - (0-19% control at 400 ppm) | 0 | 0 | +++ (90-100% control at 100 ppm) |  |  |  | 
CC(CNc1ccnc2ccccc12)(c1ccccc1)c1ccccc1 [Example 34, N-(2,2-diphenylpropyl)-4-quinolinamine] | - (0-19% control at 400 ppm) | ++ (90-100% control at 400 ppm) | + (20-89% control at 400 ppm) | 0 |  | +++ (90-100% control at 100 ppm) | + (20-89% control at 400 ppm) | - (0-19% control at 400 ppm) | 0 |  | 0 |  | - (0-19% control at 400 ppm) | 0 |  | + (20-89% control at 400 ppm) |  |  |  | 
Fc1ccc(CCNc2ccnc3ccccc23)cc1 [Example 35, N-[2-(4-fluorophenyl)ethyl]-4-quinolinamine] | - (0-19% control at 400 ppm) | + (20-89% control at 400 ppm) | + (20-89% control at 400 ppm) | 0 |  | +++ (90-100% control at 100 ppm) | + (20-89% control at 400 ppm) | - (0-19% control at 400 ppm) | 0 |  | 0 |  | - (0-19% control at 400 ppm) | 0 |  | +++ (90-100% control at 100 ppm) |  |  |  | 
COc1ccc(CCNc2ccnc3c(F)cccc23)cc1 [Example 36, 8-fluoro-N-[2-(4-methoxyphenyl)ethyl]-4-quinolinamine] | +++ (90-100% control at 100 ppm) | +++ (90-100% control at 100 ppm) | +++ (90-100% control at 100 ppm) | 0 | 0 | +++ (90-100% control at 100 ppm) | + (20-89% control at 400 ppm) | - (0-19% control at 400 ppm) | 0 | 0 | 0 | 0 | - (0-19% control at 400 ppm) | 0 | 0 | +++ (90-100% control at 100 ppm) | 0 | 0 | 0 | 0
COc1ccc(CCNc2ccnc3c(F)cccc23)cc1OC [Example 38, N-[2-(3,4-dimethoxyphenyl)ethyl]-8-fluoro-4-quinolinamine] | - (0-19% control at 400 ppm) | ++ (90-100% control at 400 ppm) | - (0-19% control at 400 ppm) | 0 | 0 | +++ (90-100% control at 100 ppm) | + (20-89% control at 400 ppm) | - (0-19% control at 400 ppm) | 0 | 0 | 0 | 0 | - (0-19% control at 400 ppm) | 0 | 0 | + (20-89% control at 400 ppm) |  |  |  | 
Fc1cc(F)c2nccc(NCCc3ccc(Cl)cc3)c2c1 [Example 41, N-[2-(4-chlorophenyl)ethyl]-6,8-difluoro-4-quinolinamine] | + (20-89% control at 400 ppm) | +++ (90-100% control at 100 ppm) | ++ (90-100% control at 400 ppm) | 0 | 0 | ++ (90-100% control at 400 ppm) | + (20-89% control at 400 ppm) | - (0-19% control at 400 ppm) | 80 | 40 | 0 | 0 | - (0-19% control at 400 ppm) | 0 | 0 | +++ (90-100% control at 100 ppm) |  |  |  | 
COc1ccc(CCNc2ccnc3cc(C(F)(F)F)ccc23)cc1 [Example 42, N-[2-(4-methoxyphenyl)ethyl]-7-(trifluoromethyl)-4-quinolinamine] | - (0-19% control at 400 ppm) | ++ (90-100% control at 400 ppm) | + (20-89% control at 400 ppm) | 0 | 0 | +++ (90-100% control at 100 ppm) | +++ (90-100% control at 100 ppm) | - (0-19% control at 400 ppm) | 0 | 0 | 0 | 0 | - (0-19% control at 400 ppm) | 0 | 0 | +++ (90-100% control at 100 ppm) |  |  |  | 
COc1cccc(CCNc2ccnc3cc(Cl)ccc23)c1 [Example 43, 7-chloro-N-[2-(3-methoxyphenyl)ethyl]-4-quinolinamine] | - (0-19% control at 400 ppm) | - (0-19% control at 400 ppm) | + (20-89% control at 400 ppm) | 0 | 0 | ++ (90-100% control at 400 ppm) | + (20-89% control at 400 ppm) | - (0-19% control at 400 ppm) | 0 | 0 | 0 | 0 | - (0-19% control at 400 ppm) | 0 | 0 | +++ (90-100% control at 100 ppm) |  |  |  | 

— patent EP0326331B1, “Substituted quinolines and cinnolines” (Dow AgroSciences LLC, priority 1988, dated 1989)
